Assay results reported in the supplement of paper PMC10627819.

Tests used:
S. aureus Newman [1] = assay: fitness (endpoint OD595 vs no drug) (fraction); higher = more growth
Summary of the method: (§1)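 In 384-well plates at 37 °C, cultures began at OD595 0.01 in 30 µl, with 55 µl used for S. pneumoniae. OD595 readings every 30 min for 14 h were corrected by the first reading. Fitness divides the stationary-phase transition optical density by the robust mean of no-drug control wells. The result is capped at 1.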

S. pneumoniae D39V [2] = assay: as above
Summary of the method: as §1

S. aureus DSM 20231 = assay: Bliss interaction score (quartile over a dose matrix) (fitness difference); higher = more antagonism (negative = synergy)
Summary of the method: (§2)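 Each OD595 reading at entry into stationary phase was scaled to the robust mean of the untreated wells on its plate, with a ceiling of 1. These ratios define fitness, and single-drug fitness was inferred from combinations. The Bliss score compares observed fitness with the product-based expectation and is reported as quartiles across all replicate types, technical, biological and donor/recipient.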

S. aureus Newman [3] = assay: as above
Summary of the method: as §2

B. subtilis 168 = assay: as above
Summary of the method: as §2

S. pneumoniae D39V [4] = assay: as above
Summary of the method: as §2
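Wherever Bliss interaction score (quartile over a dose matrix) is given: first quartile when negative (synergy) and third quartile when positive (antagonism).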
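Wherever fitness (endpoint OD595 vs no drug) is given: OD595 on entry to stationary phase over no-drug wells; at most 1.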

C/C(=C\C(=O)OCCCCCCCCC(=O)O)C[C@@H]1OC[C@H](C[C@@H]2O[C@H]2[C@@H](C)[C@H](C)O)[C@@H](O)[C@H]1O [Pseudomonic acid] + Cn1nnc(-c2ccc(-c3ccc(N4C[C@H](CO)OC4=O)cc3F)cn2)n1 [Tedizolid]
fitness, S. aureus Newman [1], one replicate
Details | first compound 0.0313 µg/mL | first compound 0.0625 µg/mL | first compound 0.125 µg/mL
partner 0.0625 µg/mL | 0.0219 | 0.0311 | 0.031
partner 0.125 µg/mL | 0.0244 | 0.0131 | 0.0219
partner 0.25 µg/mL | 0.0038 | 0.0239 | 0.018

fitness, S. pneumoniae D39V [2]
Details | partner 0.03125 µg/mL | partner 0.0625 µg/mL | partner 0.125 µg/mL | partner 0.25 µg/mL | partner 0.5 µg/mL
first compound 0.03 µg/mL | 0.963 | 0.965 | 0.82 | 0.777 | –
first compound 0.06 µg/mL | 0.881 | 0.9 | 0.759 | 0.767 | 0.516
first compound 0.12 µg/mL | 0.925 | 0.923 | 0.707 | 0.587 | 0.382

Details | Bliss interaction score
B. subtilis 168 | -0.0611
S. aureus DSM 20231 | 0.0061
S. aureus Newman [3] | 0.011
S. pneumoniae D39V [4] | 0.21

O=C(N[C@H](CO)[C@H](O)c1ccc([N+](=O)[O-])cc1)C(Cl)Cl [Chloramphenicol] + CN[C@@H]1[C@H](O[C@H]2[C@H](O[C@H]3[C@H](O)[C@@H](O)[C@H](N=C(N)N)[C@@H](O)[C@@H]3N=C(N)N)O[C@@H](C)[C@]2(O)C=O)O[C@@H](CO)[C@H](O)[C@H]1O [Streptomycin]
fitness, S. aureus Newman [1]
Details | first compound 0.75 µg/mL | first compound 1.5 µg/mL | first compound 3 µg/mL
partner 1 µg/mL | 0.755 | 0.537 | 0.213
partner 2 µg/mL | – | 0.465 | 0.177
partner 4 µg/mL | – | – | 0.128

Details | Bliss interaction score
B. subtilis 168 | 0.144
S. aureus DSM 20231 | 0.0438
S. aureus Newman [3] | -0.0754
S. pneumoniae D39V [4] | -0.0647

O=C(N[C@H](CO)[C@H](O)c1ccc([N+](=O)[O-])cc1)C(Cl)Cl [Chloramphenicol] + C/C(=C\C(=O)OCCCCCCCCC(=O)O)C[C@@H]1OC[C@H](C[C@@H]2O[C@H]2[C@@H](C)[C@H](C)O)[C@@H](O)[C@H]1O [Pseudomonic acid]
fitness, S. aureus Newman [1], one replicate
Details | first compound 0.75 µg/mL | first compound 1.5 µg/mL | first compound 3 µg/mL
partner 0.0313 µg/mL | 0.0723 | 0.0644 | 0.0687
partner 0.0625 µg/mL | 0.0337 | 0.0381 | 0.0484
partner 0.125 µg/mL | 0.062 | 0.0655 | 0.0652

Details | Bliss interaction score
B. subtilis 168 | 0.0522
S. aureus DSM 20231 | 0.0264
S. aureus Newman [3] | 0.0532
S. pneumoniae D39V [4] | 0.172

C/C(=C\C(=O)OCCCCCCCCC(=O)O)C[C@@H]1OC[C@H](C[C@@H]2O[C@H]2[C@@H](C)[C@H](C)O)[C@@H](O)[C@H]1O [Pseudomonic acid] + CN(C)c1cc(NC(=O)CNC(C)(C)C)c(O)c2c1C[C@H]1C[C@H]3[C@H](N(C)C)C(O)=C(C(N)=O)C(=O)[C@@]3(O)C(O)=C1C2=O [Tigecycline]
fitness, S. aureus Newman [1], one replicate
Details | first compound 0.0313 µg/mL | first compound 0.0625 µg/mL | first compound 0.125 µg/mL
partner 0.039 µg/mL | 0.0303 | 0.0332 | 0.029
partner 0.078 µg/mL | 0.0326 | 0.0257 | 0.0238
partner 0.156 µg/mL | 0.0698 | 0.0522 | 0.0728

fitness, S. pneumoniae D39V [2]
Details | first compound 0.03 µg/mL | first compound 0.06 µg/mL | first compound 0.12 µg/mL
partner 0.65 µg/mL | 0.872 | 0.739 | 0.575
partner 1.3 µg/mL | 0.923 | 0.747 | 0.612
partner 2.6 µg/mL | 0.879 | 0.752 | 0.59

Details | Bliss interaction score
B. subtilis 168 | 0.07
S. aureus DSM 20231 | 0.006
S. aureus Newman [3] | -0.0182
S. pneumoniae D39V [4] | -0.124

O=C(N[C@H](CO)[C@H](O)c1ccc([N+](=O)[O-])cc1)C(Cl)Cl [Chloramphenicol] + CN(C)c1cc(NC(=O)CNC(C)(C)C)c(O)c2c1C[C@H]1C[C@H]3[C@H](N(C)C)C(O)=C(C(N)=O)C(=O)[C@@]3(O)C(O)=C1C2=O [Tigecycline]
fitness, S. aureus Newman [1]
Details | first compound 0.75 µg/mL | first compound 1.5 µg/mL | first compound 3 µg/mL
partner 0.039 µg/mL | 0.789 | 0.509 | 0.216
partner 0.078 µg/mL | 0.831 | 0.559 | 0.2
partner 0.156 µg/mL | 0.829 | 0.58 | 0.213

Details | Bliss interaction score
B. subtilis 168 | -0.0487
S. aureus DSM 20231 | -0.0788
S. aureus Newman [3] | -0.0583
S. pneumoniae D39V [4] | -0.114

CCCCCCCCCC(=O)N[C@H]1[C@H](Oc2c3cc4cc2Oc2ccc(cc2Cl)[C@@H](O[C@@H]2O[C@H](CO)[C@@H](O)[C@H](O)[C@H]2NC(C)=O)[C@@H]2NC(=O)[C@H](NC(=O)[C@@H]4NC(=O)[C@H]4NC(=O)[C@@H](Cc5ccc(c(Cl)c5)O3)NC(=O)[C@H](N)c3ccc(O)c(c3)Oc3cc(O)cc4c3)c3ccc(O)c(c3)-c3c(O[C@H]4O[C@H](CO)[C@@H](O)[C@H](O)[C@@H]4O)cc(O)cc3[C@@H](C(=O)O)NC2=O)O[C@H](CO)[C@@H](O)[C@@H]1O [Teicoplanin] + CN(C)c1cc(NC(=O)CNC(C)(C)C)c(O)c2c1C[C@H]1C[C@H]3[C@H](N(C)C)C(O)=C(C(N)=O)C(=O)[C@@]3(O)C(O)=C1C2=O [Tigecycline]
fitness, S. aureus Newman [1], main component drawn
Details | first compound 0.1562 µg/mL | first compound 0.3125 µg/mL | first compound 0.625 µg/mL
partner 0.039 µg/mL | ≥ 1 | 0.98 | ≥ 1
partner 0.078 µg/mL | ≥ 1 | 0.963 | ≥ 1
partner 0.156 µg/mL | ≥ 1 | ≥ 1 | ≥ 1

fitness, S. aureus Newman [1], one replicate, main component drawn
Details | first compound 0.62 µg/mL | first compound 1.24 µg/mL | first compound 2.48 µg/mL
partner 0.039 µg/mL | 0.757 | 0.736 | 0.456
partner 0.078 µg/mL | 0.754 | 0.746 | 0.453
partner 0.156 µg/mL | 0.813 | 0.756 | 0.427

main component drawn
Details | Bliss interaction score
B. subtilis 168 | 0.123
S. aureus DSM 20231 | 0.108
S. aureus Newman [3] | 0.0513
S. pneumoniae D39V [4] | 0.0619
